{
  "source": "patent US20250263388A1",
  "about": "“NOVEL COMPOUND BASED ON VALEROLACTONE AND MEDICINE” (priority 2018, published 2025)",
  "key": {"[1]": {"test_system": "ALS", "conditions": "cited from earlier work; for efficacy in clinical trials: ALS therapeutic drug candidates"}, "[2]": {"test_system": "SOD1-G93A-introduced N2a cells", "experiment": "Dual-luciferase assay (SOD1-G93A gene introduced into N2a cells)", "conditions": "positive control resveratrol"}, "[3]": {"test_system": "ALS model mice holding SOD1-G93A gene", "experiment": "Motor performance (Rota-rod test) in ALS model mice", "type": "in vivo, mouse", "protocol": "(§1) ALS model mice holding SOD1-G93A gene were used for the experiment. The first generation mouse was generated by bleeding a 6-week-old SOD1-G93A transgenic male (B6SJL-Tg (SOD1-G93A) 1Gur/J, imported from The Jackson Laboratory, USA) with 8-week-old C57BL/6J female mice (designated as F1 as shown below), and placed in the same cage for 1 week for mating.\nBackcrossing was performed using the first backcross SOD1-G93A gene-bearing male mouse (FuBk1) and C57BL/6J female mouse (F1) produced as described above, and the resulting mouse carrying the SOD1-G93A gene was backcrossed with C57BL/6J female mice, which was the second mouse (FuBk2) They were used in the preliminary test described below. […]\n(§2) The test substance was evaluated based on two points: the survival days of mice and motor function. Regarding the number of days of survival, the number of days until the mouse was determined to be dead (including surrogate death) was evaluated. Motor function was evaluated by a motor test using the Rota-rod method.\nIn order to investigate the onset time of ALS-like symptoms in the test subject mouse, the motor function of the mouse was measured once a week by the Rota-rod method using a ROTA-ROD TREADMILL for MICE MK-600 (Muromachi). […] Those who fell twice in 300 seconds or less were regarded as mice showing the symptoms of motor inability, and the latency (seconds) until they fell was also measured. […]"}, "[4]": {"test_system": "ALS model mice holding SOD1-G93A gene", "experiment": "Survival days (Kaplan-Meier) in ALS model mice", "type": "in vivo, mouse", "protocol": "as §1\n(§3) Backcrossing was performed using the first backcross SOD1-G93A gene-bearing male mouse (FuBk1) and C57BL/6J female mouse (F1) produced as described above, and the resulting mouse carrying the SOD1-G93A gene was backcrossed with C57BL/6J female mice, which was the second mouse (FuBk2) They were used in the preliminary test described below. A male mouse (FuBk2) carrying the SOD1-G93A gene was further crossed with an F1 female mouse to prepare a third backcrossed mouse (FuBk3) and a fourth backcrossed mouse (FuBk4), which will be described later as the final examination.\nas §2\nA mouse that lost its righting reflex and could not return to the correct posture within 20 seconds was determined to be a surrogate death.\nThe test results were analyzed by the Kaplan-Meier method, and the p-value and median were obtained by the Log-Rank test or the Wilcoxon test. The latency between control and YY-1 group after developing of the motor inability was analyzed by T-test for each measuring point.\nOf the third backcrossed mouse (FuBk3) carrying the SOD1-G93A gene, a total of 51 male and female mice determined to carry the SOD1-G93A gene by genotyping, and were used as test animals.\nThe test drug was prepared at a concentration shown in Table 14 using a 1% DMSO+2% Tween 20 solution as a solvent. The test substance was orally administered to mice using a sterilized disposable sonde. According to Table 13 above, the test substance in an amount corresponding to the body weight was […] administered to the mouse.\nA total of 52 determined female mice were used as test animals.\nThe test substance was administered to the mouse once a day from 105 days after birth using a sterilized disposable oral probe at 0.1 mL/10 g (body weight) (10 mg/kg)."}, "[5]": {"test_system": "differentiated NSC-34 cells", "experiment": "ODAP-EA assay (reducing effect on motor excitotoxicity)", "type": "cell-based, mouse", "from_the_text": "ODAP-EA assay was invented by the present inventor as a test for measuring the reducing effect on motor exciotoxicity (Kusama-Eguchi K, et. al. Food Chem Toxicol., 49, 636-643 (2011)). In the ODAP-EA assay, differentiated NSC-34 cells were subjected to excitotoxicity in NSC-34 cells by adding ethacrynic acid (EA), which has a mitochondrial glutathione level-lowering effect, and L-β-ODAP, which is a neurotoxic amino acid. Then, the effect of reducing the excitotoxicity of the test substance is evaluated.\nNSC34 cells were cultivated in a Rich medium in a […] until they became confluent, and then the Rich medium in the dish was removed. […] The replacement of the Poor medium once a day was repeated about 3 to 5 times to promote the differentiation of NSC-34 cells.\nThe NSC-34 cells differentiated as described above were suspended in Poor medium and seeded in a 96-well plate at a target concentration of 4×10^4 cells/well at 200 μL/well. […]\nThen, 110 μL of the medium in the well plate was removed, 10 μL/well of AlamarBlue™ previously returned to room temperature was added, and the plate was placed in an incubator at 37° C. under 5% CO2 condition. After about 1 hour, the fluorescence intensity (excitation wavelength: 544 nm, fluorescence wavelength: 590 nm) was measured using a fluorescence plate reader. […]"}, "[6]": {"test_system": "ALS model mice holding SOD1-G93A gene", "experiment": "Change in the body weight of ALS model mice, administration test 1", "type": "in vivo", "conditions": "1 mg/kg and 10 mg/kg, oral once a day from 60 days after birth", "protocol": "as §1, §3\nSubject animal: The second backcrossed mice (FuBk2) holding SOD1-G93A were determined by genotyping, and were used for the treatment experiment from 60 days after birth (pre-symptomatic period). A total of 16 animals were used as test animals (n=16).\nThe test substance dissolved in DMSO was prepared at a concentration shown in Table 12 using a 2.5% DMSO (final concentration) solution as a solvent. […]\nThe body weight was measured twice a week. […]"}, "[7]": {"test_system": "NSC-34 cells", "experiment": "ROS assay", "type": "cell-based, mouse", "protocol": "The ROS assay is a test in which the test substances are evaluated for their ability to eliminate the ROS produced by a cell under stress. The ROS assay was performed by culturing NSC-34 cells in a medium from which serum (FBS) had been removed, and measuring the increased ROS produced at that time using CM-H2DCFDA.\nNSC-34 cells were suspended in phenol red free DMEM medium, and NSC-34 cells were seeded at a target concentration of 4×10^4 cells/well in a 96-well plate at 200 μL/well.\nThen, the medium was completely removed from the 96-well plate, DMEM ([-] phenol red) was added at 200 μL/well, and then the test substance dissolved in DMSO (or solvent only) was added at 0.4 μL/well. […] And placed in the incubator for 1 hour. One hour later, the fluorescence intensity (excitation wavelength 485 nm, fluorescence wavelength 520 nm) was measured using a fluorescence microplate reader.\nThe test was performed 2 to 4 times in quadruplicate. As a positive control, 30 μg/mL (120 μM) trolox was used. From the measurement result obtained with the test substance, the relative intensity to trolox was calculated by the following formula (1)."}, "[8]": {"conditions": "5 mg/kg oral once a day from about 45 days after birth, FuBk3 mice, tendency, p=0.090"}, "[9]": {"conditions": "10 mg/kg oral once a day from 105 days after birth, FuBk4 mice, p=0.029"}},
  "data": [
    {"molecule": "CC(=O)N[C@@H](CS)C(=O)O", "note": "[N-acetylcysteine]", "values": [
      {"measurement": "efficacy in clinical trials", "setting": "[1]", "value": "no efficacy"}
    ]},
    {"molecule": "C/C=C/C=C/[C@H]1OC(=O)CC[C@@H]1O", "note": "[YY-1, (5S,6R)-5-hydroxy-6-[(1E,3E)-penta-1,3-dien-1-yl] tetrahydro-2H-pyran-2-one]", "values": [
      {"measurement": "luminescence intensity in excess of the positive control", "setting": "[2]; 0.1 μg/mL (0.55 μM)", "value": "about 40%"},
      {"measurement": "luminescence intensity in excess of the positive control", "setting": "[2]; 1 μg/mL (5.5 μM)", "value": "about 40%"},
      {"measurement": "prolongation of development of motor disability vs control, median", "setting": "[3]; 5 mg/kg oral once a day from about 45 days after birth, FuBk3 mice, tendency, p=0.12", "value": 7, "unit": "days"},
      {"measurement": "delay effect in motor dysfunction", "setting": "[3]; 10 mg/kg oral once a day from 105 days after birth, FuBk4 mice", "value": "about 7 days"},
      {"measurement": "extension of survival days vs control, average value", "setting": "[4]; [8]", "value": "about 5 days"},
      {"measurement": "extension of survival days vs control, median value", "setting": "[4]; [8]", "value": 8, "unit": "days"},
      {"measurement": "prolongation of survival days vs control, mean value", "setting": "[4]; [9]", "value": "about 6 days"},
      {"measurement": "prolongation of survival days vs control, median value", "setting": "[4]; [9]", "value": 5, "unit": "days"},
      {"measurement": "relative strength with respect to 4 mM NAC (highest)", "setting": "[5]; 0.1 to 3.0 μg/mL (0.55 to 16.5 μM)", "value": "≤ 20", "unit": "%"},
      {"measurement": "ODAP-EA toxicity-reducing effect", "setting": "[5]; all concentrations of 0.1 to 100 μg/mL (0.55 to 550 μM)", "value": "strong ODAP-EA toxicity-reducing effect"},
      {"measurement": "toxicity to the ALS model mouse (presumed from body weight)", "setting": "[6]", "value": "no or low toxicity"},
      {"measurement": "body weight change", "setting": "[6]; FuBk2 male mice", "value": "no significant weight loss"},
      {"measurement": "ROS scavenging action relative to trolox", "setting": "[7]; relative to 30 μg/mL (120 μM) trolox, serum-free medium, test substance 10, 30 or 100 μg/mL", "value": "about 20%"},
      {"measurement": "ROS assay activity relative to 322-Ext at the same concentration", "setting": "[7]; same concentration as 322-Ext", "value": "about 40%"}
    ]},
    {"molecule": "COC1=C(OC)C(=O)C(C/C=C(\\C)CC/C=C(\\C)CC/C=C(\\C)CC/C=C(\\C)CC/C=C(\\C)CC/C=C(\\C)CC/C=C(\\C)CC/C=C(\\C)CC/C=C(\\C)CCC=C(C)C)=C(C)C1=O", "note": "[coenzyme Q10]", "values": [
      {"measurement": "efficacy in clinical trials", "setting": "[1]", "value": "no efficacy"}
    ]},
    {"molecule": "N[C@@H](CCC(=O)N[C@@H](CS)C(=O)NCC(=O)O)C(=O)O", "note": "[glutathione]", "values": [
      {"measurement": "efficacy in clinical trials", "setting": "[1]", "value": "no efficacy"}
    ]},
    {"molecule": "C/C1=C2/[N-][C@H]([C@H](CC(N)=O)[C@@]2(C)CCC(=O)NC[C@@H](C)OP(=O)([O-])O[C@H]2[C@@H](O)[C@@H](n3cnc4cc(C)c(C)cc43)O[C@@H]2CO)[C@]2(C)N=C(/C(C)=C3N=C(/C=C4N=C1[C@@H](CCC(N)=O)C\\4(C)C)[C@@H](CCC(N)=O)[C@]\\3(C)CC(N)=O)[C@@H](CCC(N)=O)[C@]2(C)CC(N)=O.[CH3-].[Co+3]", "note": "[methylcobalamin]", "values": [
      {"measurement": "efficacy in clinical trials", "setting": "[1]", "value": "no efficacy"}
    ]},
    {"molecule": "IGF-1: Insulin-like growth factor-1, protein expected to have an action of preventing motor nerve loss", "values": [
      {"measurement": "outcome of clinical trials (Phase 3)", "setting": "[1]; Non-Patent Document 5", "value": "unsuccessful"}
    ]}
  ]
}
